Laboratory results reported in ChEMBL document CHEMBL4184305, “Inhibition of histone lysine methyltransferases G9a and GLP by ejection of structural Zn(II)” (Bioorg Med Chem Lett, 2018).
Active and inactive are the calls of the source. The rule behind the calls is not given here.

Tests used:
[1] = molecular target: T1, Histone-lysine N-methyltransferase EHMT1 (Homo sapiens) (UniProt Q9H9B1); experiment: Inhibition of wild type recombinant human histone lysine methyltransferase GLP (951 to 1235 residues) expressed in Escherichia coli Rosetta BL21 DE3 PlysS assessed as zinc ions ejection from 3 types of Cys9-type Zn fingers at >50 uM after 1 hr by circular dichroism analysis
T1 sequence (whole entry): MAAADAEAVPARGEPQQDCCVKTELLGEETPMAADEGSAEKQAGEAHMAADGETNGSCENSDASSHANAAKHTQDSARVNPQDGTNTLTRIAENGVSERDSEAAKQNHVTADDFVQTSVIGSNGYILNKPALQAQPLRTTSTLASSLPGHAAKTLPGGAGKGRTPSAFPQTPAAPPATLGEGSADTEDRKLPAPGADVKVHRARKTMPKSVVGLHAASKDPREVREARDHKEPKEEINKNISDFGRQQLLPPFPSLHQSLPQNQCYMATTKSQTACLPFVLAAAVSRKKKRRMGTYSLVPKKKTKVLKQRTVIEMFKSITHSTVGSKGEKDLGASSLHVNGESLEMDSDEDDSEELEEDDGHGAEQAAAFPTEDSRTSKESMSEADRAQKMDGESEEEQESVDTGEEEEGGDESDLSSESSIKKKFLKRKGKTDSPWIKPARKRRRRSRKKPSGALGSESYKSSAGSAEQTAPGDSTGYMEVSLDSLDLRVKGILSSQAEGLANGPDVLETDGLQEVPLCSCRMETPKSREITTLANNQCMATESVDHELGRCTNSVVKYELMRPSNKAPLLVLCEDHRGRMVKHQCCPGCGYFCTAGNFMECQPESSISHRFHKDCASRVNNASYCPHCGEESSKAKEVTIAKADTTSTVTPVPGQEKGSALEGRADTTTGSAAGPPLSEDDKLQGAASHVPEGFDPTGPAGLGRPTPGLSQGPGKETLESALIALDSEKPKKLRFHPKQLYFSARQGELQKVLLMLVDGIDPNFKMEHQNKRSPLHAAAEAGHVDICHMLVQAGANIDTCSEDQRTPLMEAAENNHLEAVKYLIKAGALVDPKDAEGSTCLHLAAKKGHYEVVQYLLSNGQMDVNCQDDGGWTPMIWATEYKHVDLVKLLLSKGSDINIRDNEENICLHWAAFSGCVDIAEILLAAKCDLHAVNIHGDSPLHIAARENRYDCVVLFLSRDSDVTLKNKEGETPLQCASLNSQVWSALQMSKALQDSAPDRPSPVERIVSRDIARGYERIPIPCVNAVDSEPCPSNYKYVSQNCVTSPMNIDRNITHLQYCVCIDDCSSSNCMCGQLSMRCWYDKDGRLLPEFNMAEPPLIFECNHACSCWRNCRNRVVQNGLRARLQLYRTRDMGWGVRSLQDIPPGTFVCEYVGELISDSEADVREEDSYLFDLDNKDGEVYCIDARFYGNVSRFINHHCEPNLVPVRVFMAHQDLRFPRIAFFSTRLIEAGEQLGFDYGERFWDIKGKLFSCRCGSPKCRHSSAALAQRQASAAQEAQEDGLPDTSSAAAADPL

[2] = molecular target: T2, Histone-lysine N-methyltransferase EHMT2 (Homo sapiens) (UniProt Q96KQ7); experiment: Inhibition of wild type recombinant human histone lysine methyltransferase G9a (913 to 1193 residues) expressed in Escherichia coli Rosetta BL21 DE3 PlysS assessed as zinc ions ejection from Cys4-Zn finger at 2.5 to 100 uM after 500 to 3500 secs by FluoZin-3 based fluorescence assay
T2 sequence (whole entry): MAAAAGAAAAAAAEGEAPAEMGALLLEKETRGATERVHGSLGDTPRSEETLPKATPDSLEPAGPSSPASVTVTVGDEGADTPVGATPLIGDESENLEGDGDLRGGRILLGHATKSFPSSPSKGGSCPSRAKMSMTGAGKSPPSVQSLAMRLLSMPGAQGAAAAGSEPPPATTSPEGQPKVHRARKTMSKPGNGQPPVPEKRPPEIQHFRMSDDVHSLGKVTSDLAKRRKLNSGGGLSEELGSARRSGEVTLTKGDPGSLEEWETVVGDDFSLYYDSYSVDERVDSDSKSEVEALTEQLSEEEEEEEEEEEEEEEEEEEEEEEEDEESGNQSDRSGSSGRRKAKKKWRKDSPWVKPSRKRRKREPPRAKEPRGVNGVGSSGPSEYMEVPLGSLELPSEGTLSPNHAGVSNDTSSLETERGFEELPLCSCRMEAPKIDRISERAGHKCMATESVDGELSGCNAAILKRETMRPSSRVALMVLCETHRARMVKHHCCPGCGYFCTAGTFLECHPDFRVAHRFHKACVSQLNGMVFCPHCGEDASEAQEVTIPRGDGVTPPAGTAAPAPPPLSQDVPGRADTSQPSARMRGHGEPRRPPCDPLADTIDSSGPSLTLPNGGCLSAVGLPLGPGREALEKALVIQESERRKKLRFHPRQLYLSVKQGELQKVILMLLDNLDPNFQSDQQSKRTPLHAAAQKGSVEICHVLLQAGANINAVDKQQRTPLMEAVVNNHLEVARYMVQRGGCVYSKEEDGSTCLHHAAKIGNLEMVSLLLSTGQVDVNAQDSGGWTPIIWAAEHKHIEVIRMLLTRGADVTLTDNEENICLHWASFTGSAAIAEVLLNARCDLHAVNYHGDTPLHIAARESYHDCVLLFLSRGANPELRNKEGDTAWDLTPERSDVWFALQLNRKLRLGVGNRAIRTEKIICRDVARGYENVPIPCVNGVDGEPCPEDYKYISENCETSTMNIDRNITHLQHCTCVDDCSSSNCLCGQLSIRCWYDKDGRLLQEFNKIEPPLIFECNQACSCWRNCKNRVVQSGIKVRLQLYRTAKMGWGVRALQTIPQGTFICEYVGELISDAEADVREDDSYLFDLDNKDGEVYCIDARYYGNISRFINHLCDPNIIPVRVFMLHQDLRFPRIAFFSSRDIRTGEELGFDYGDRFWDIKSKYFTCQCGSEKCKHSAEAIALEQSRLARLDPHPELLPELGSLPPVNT

[3] = molecular target: T2, Histone-lysine N-methyltransferase EHMT2 (Homo sapiens); experiment: Inhibition of wild type recombinant human histone lysine methyltransferase G9a (913 to 1193 residues) expressed in Escherichia coli Rosetta BL21 DE3 PlysS assessed as zinc ions ejection from Cys4-Zn finger at >50 uM after 1 hr by circular dichroism analysis
[4] = molecular target: T1, Histone-lysine N-methyltransferase EHMT1 (Homo sapiens); experiment: Inhibition of wild type recombinant human histone lysine methyltransferase GLP (951 to 1235 residues) expressed in Escherichia coli Rosetta BL21 DE3 PlysS assessed as zinc ions ejection from 3 types of Cys9-type Zn fingers at >25 uM after 1 hr by circular dichroism analysis
[5] = molecular target: T1, Histone-lysine N-methyltransferase EHMT1 (Homo sapiens); experiment: Inhibition of wild type recombinant human histone lysine methyltransferase GLP (951 to 1235 residues) expressed in Escherichia coli Rosetta BL21 DE3 PlysS assessed as zinc ions ejection from Cys4-Zn finger at >25 uM after 1 hr by circular dichroism analysis

| Compound | inhibition [1] | inhibition [2] | inhibition [3] | inhibition [4] | inhibition [5] |
| --- | --- | --- | --- | --- | --- |
| CCN(CC)C(=S)SSC(=S)N(CC)CC | Active | Active | Active | – | – |
| O=c1c2ccccc2[se]n1-c1ccccc1 [EBSELEN] | – | – | – | Active | Active |
